Earlier results as cited in article PMC11187573, “Identification of SARS-CoV-2 Mpro inhibitors through deep reinforcement learning for de novo drug design and computational chemistry approaches” (RSC Medicinal Chemistry, 2024).
Where two headings read alike, the source gives them in different places.

Assays:
[1] = test system: SARS, SARS-CoV-2 and MERS Mpro; conditions: cited from earlier work
[2] = test system: Mpro; conditions: ML dataset, cited from earlier work
[3] = Origin COVID_Moonshot, ref COVID Moonshot

| Structure (SMILES) | IC50 ([1]; Origin ChEMBL, ref ChEMBL) | IC50 [2, 3] | other results |
| --- | --- | --- | --- |
| CC(C)(C)c1ccc(S(=O)(=O)/C=C/C#N)cc1 [CHEMBL270299, CC(C)(C)c(cc1)ccc1S(/C=C/C#N)(=O)=O] | 0.84 µM |  |  |
| CN(C)CCNc1nc2cc(O)ccc2c2c1C(=O)c1ccccc1-2 [CHEMBL488755, CN(C)CCNc1nc2cc(O)ccc2c(-c2c3cccc2)c1C3=O] | 2.99 µM |  |  |
| Oc1cc(CNC(=S)/C=C/c2cc(O)c(O)c(Br)c2)cc(O)c1O [CHEMBL4303361, Oc1cc(CNC(/C=C/c(cc2O)cc(Br)c2O)=S)cc(O)c1O] | 0.48 µM |  |  |
| N#CSc1cc(SC#N)c(N)nc1N [CHEMBL4303622, Nc(c(SC#N)c1)nc(N)c1SC#N] | 1.35 µM |  |  |
| CC(NC(=O)CCl)c1cc(Cl)cc(-c2ccc(S(N)(=O)=O)cc2)c1 (stereo not shown) [DAV-CRI-14a23e73-1, CC(c1cc(Cl)cc(-c(cc2)ccc2S(N)(=O)=O)c1)NC(CCl)=O] |  |  | IC50 [1, 3]: 0.466 µM |
| COc1ccc2c(c1)CN(C(=O)CCl)C(c1ccccc1)C2 (stereo not shown) [NAU-LAT-64f4b287-4, COc1cc(CN(C(C2)c3ccccc3)C(CCl)=O)c2cc1] |  |  | IC50 [1, 3]: 3.74 µM |
| C[C@@](Cc1ccc(O)c(O)c1)(NN)C(=O)O [CHEMBL1201236, C[C@](Cc(cc1)cc(O)c1O)(C(O)=O)NN] | 3.55 µM |  |  |
| Cc1cc(C(=O)CCl)c(C)n1CC1COc2ccccc2O1 (stereo not shown) [TAT-ENA-80bfd3e5-32, Cc1cc(C(CCl)=O)c(C)n1CC1Oc(cccc2)c2OC1] |  |  | IC50 [1, 3]: 2.82 µM |
| O=C1C(Cl)=C(N2CCOCC2)C(=O)N1c1ccc(Cl)c(Cl)c1 [CHEMBL1271993, O=C(C(N1CCOCC1)=C(C1=O)Cl)N1c(cc1)cc(Cl)c1Cl] | 2.83 µM |  |  |
| CC(C)N(CCC(=O)c1ccc2ccccc2c1)Cc1ccccc1 [CHEMBL596674, CC(C)N(CCC(c1cc2ccccc2cc1)=O)Cc1ccccc1] | 0.58 µM |  |  |
| O=[N+]([O-])c1cnc(Sc2nnc(O)n2-c2ccc3c(c2)OCCO3)s1 [CHEMBL508280, [O-][N+](c1cnc(Sc(n2-c(cc3)cc4c3OCCO4)nnc2O)s1)=O] | 2.05 µM |  |  |
| O=C1c2c(O)cc(O)cc2O[C@H](c2cc(O)c(O)c(O)c2)[C@H]1O [CHEMBL3348861, O[C@H]([C@@H](c(cc1O)cc(O)c1O)Oc1c2c(O)cc(O)c1)C2=O] | 0.18 µM |  |  |
| Cc1ccc(S(=O)(=O)/C=C/C#N)cc1 [CHEMBL403183, Cc(cc1)ccc1S(/C=C/C#N)(=O)=O] | 0.82 µM |  |  |
| Cc1coc2c1C(=O)C(=O)c1c-2ccc2c(C)cccc12 [CHEMBL363535, Cc1coc(-c(ccc2c(C)cccc22)c2C2=O)c1C2=O] | 0.7 µM |  |  |
| O=c1cc(-c2ccc(O)cc2)oc2cc(O)cc(O)c12 [CHEMBL28, Oc(cc1)ccc1C(Oc1c2c(O)cc(O)c1)=CC2=O] | 3.02 µM |  |  |
| CCOC(=O)c1ccc(NC(=O)CC2SC(=O)N(c3ccccc3)C2=O)cc1 (stereo not shown) [LON-WEI-4d77710c-74, CCOC(c(cc1)ccc1NC(CC(C(N1c2ccccc2)=O)SC1=O)=O)=O] |  |  | IC50 [1, 3]: 2.4 µM |
| O=C(CCl)N1CCN(S(=O)(=O)C2=CC[SH]=C2)CC1 [MAK-UNK-d4768348-1, O=C(CCl)N(CC1)CCN1S(C1=CCS=C1)(=O)=O] |  |  | IC50 [1, 3]: 1.63 µM |
| CC(C)(C)OC(=O)NCCc1nnc(S(=O)(=O)Cc2ccc(Cl)cc2Cl)o1 [CHEMBL259018, CC(C)(C)OC(NCCc(o1)nnc1S(Cc(ccc(Cl)c1)c1Cl)(=O)=O)=O] | 4.22 µM |  |  |
| C=C1C(=O)[C@]23[C@H](O)[C@H]1CC[C@@H]2[C@]12CO[C@]3(O)C[C@@H]1C(C)(C)CC[C@@H]2O [CHEMBL4303503, CC(C)(CC1)[C@@H](C[C@@]([C@@]([C@@H]2O)([C@@H]3CC[C@H]2C2=C)C2=O)(O)OC2)[C@@]23[C@H]1O] | 2.57 µM |  |  |
| COCCCOc1ccnc(C[S+]([O-])c2nc3ccccc3[nH]2)c1C (stereo not shown) [CHEMBL1200930, Cc(c(C[S+](c1nc(cccc2)c2[n-]1)[O-])ncc1)c1OCCCOC] | 0.74 µM |  |  |
| CC(C)C[C@@H]1CN(C(=O)CCl)CCN1Cc1cccc(Cl)c1 [DAN-LON-a5fc619e-3, CC(C)C[C@H](C1)N(Cc2cccc(Cl)c2)CCN1C(CCl)=O] |  |  | IC50 [1, 3]: 0.784 µM |
| COc1ccc(C2CC(c3ccccc3)=NN2C(=O)CCl)cc1OC (stereo not shown) [MED-COV-4280ac29-30, COc(ccc(C(C1)N(C(CCl)=O)N=C1c1ccccc1)c1)c1OC] |  |  | IC50 [1, 3]: 0.543 µM |

| Structure (SMILES) | IC50 ([1]; Origin ChEMBL, ref ChEMBL) | IC50 [2, 3] | other results |
| --- | --- | --- | --- |
| COc1ccc(C2CC(c3cccs3)=NN2C(=O)CCl)cc1OC (stereo not shown) [MAT-POS-916a2c5a-1, COc(ccc(C(C1)N(C(CCl)=O)N=C1c1cccs1)c1)c1OC] |  |  | IC50 [1, 3]: 1.87 µM |
| O=S(=O)(Nc1ccccc1SCc1cccc(Cl)c1F)c1cc(Cl)sc1Cl [LON-WEI-4d77710c-64, O=S(c(cc(s1)Cl)c1Cl)(Nc(cccc1)c1SCc1cccc(Cl)c1F)=O] |  |  | IC50 [1, 3]: 2.23 µM |
| COc1cc(CN2CCN(C(=O)CCl)CC2)c2ccccc2c1 [DAR-DIA-fb20be43-7, COc1cc2ccccc2c(CN(CC2)CCN2C(CCl)=O)c1] |  |  | IC50 [1, 3]: 2.75 µM |
| O=C(CCl)N1CCN(C(c2ccccc2)c2ccccc2)CC1 [SIM-SYN-f15aaa3a-1, O=C(CCl)N(CC1)CCN1C(c1ccccc1)c1ccccc1] |  |  | IC50 [1, 3]: 1.98 µM |
| CCN1CCN(C(c2ccc(C(F)(F)F)cc2)c2ccc3cccnc3c2O)CC1 (stereo not shown) [CHEMBL1422849, CCN(CC1)CCN1C(c1ccc(C(F)(F)F)cc1)c(ccc1cccnc11)c1O] | 0.15 µM |  |  |
| CC=C1C(OC2OC(CO)C(O)C(O)C2O)OC=C(C(=O)OC)C1CC(=O)OCCc1ccc(O)c(O)c1 (stereo not shown) [CHEMBL4303154, CC=C(C1CC(OCCc(cc2)cc(O)c2O)=O)C(OC(C(C2O)O)OC(CO)C2O)OC=C1C(OC)=O] | 3.38 µM |  |  |
| Cc1ccccc1N(C)C(=O)c1ccc([S+]([O-])c2nccs2)c([N+](=O)[O-])c1 (stereo not shown) [CHEMBL4303376, Cc(cccc1)c1N(C)C(c(cc1)cc([N+]([O-])=O)c1[S+](c1nccs1)[O-])=O] | 1.87 µM |  |  |
| O=C1C=CC(=O)C2=C1C1c3ccccc3C2c2ccccc21 [CHEMBL1474701, O=C(C=C1)C(C(c2c(C34)cccc2)c2c4cccc2)=C3C1=O] | 0.24 µM |  |  |
| CN(C)C(=S)SSC(=S)N(C)C [CHEMBL120563, CN(C)C(SSC(N(C)C)=S)=S] | 0.05 µM |  |  |
| O=[N+]([O-])c1cnc(Sc2nnc(-c3ccc(Cl)cc3)o2)s1 [LON-WEI-4d77710c-67, [O-][N+](c1cnc(Sc2nnc(-c(cc3)ccc3Cl)o2)s1)=O] |  |  | IC50 [1, 3]: 0.881 µM |
| COc1cccc(C(=O)CCN[C@@H](C)[C@H](O)c2ccccc2)c1 [CHEMBL2354521, C[C@@H]([C@@H](c1ccccc1)O)NCCC(c1cc(OC)ccc1)=O] | 2.35 µM |  |  |
| O=C1C(=O)N(Cc2cc3ccccc3s2)c2c(Br)cccc21 [CHEMBL365134, O=C(c1cccc(Br)c1N1Cc2cc(cccc3)c3s2)C1=O] | 0.98 µM |  |  |
| Cc1ccncc1NC(=O)C(C)c1cc(Cl)cc(OC2CC(=O)N2)c1 (stereo not shown) |  | 82.6 µM |  |
| Cc1c(N)cncc1NC(=O)Cc1cccc(Cl)c1 |  | 6.21 µM |  |
| CC(C)(C)c1ccc(N(C(=O)c2cnco2)C(C(=O)NCCc2cccc(F)c2)c2cccnc2)cc1 (stereo not shown) [ALP-POS-305f6ec3-49] |  | 4.78 µM |  |
| Nc1cncc2c1CCCN2C(=O)Cc1cccc(Cl)c1 |  | 43.4 µM |  |
| CN(C)c1ccc(N(Cc2ccsc2)C(=O)Cn2nnc3ccccc32)cc1 [ALP-POS-d2866bdf-1] |  | 3.58 µM |  |
| CC(C)(C)c1ccc(N(C(=O)c2cncs2)C(C(=O)NCCc2cccc(F)c2)c2cccnc2)cc1 (stereo not shown) [ALP-POS-305f6ec3-41] |  | 24.2 µM |  |
| CC(C)(C)c1ccc(N(C(=O)c2cocn2)C(C(=O)NC2CCOCC2)c2cccnc2)cc1 (stereo not shown) [ALP-POS-88a7a97e-9] |  | 3.9 µM |  |
| O=C(Nc1cnccc1CO)C1COc2ccc(Cl)cc21 (stereo not shown) [JAG-UCB-a3ef7265-3, Mpro-x10338] |  | 30.4 µM |  |
| CCOC(=O)c1ncoc1CNC(=O)C(c1cccnc1)N(C(=O)c1cocn1)c1ccc(C(C)(C)C)cc1 (stereo not shown) [ALP-POS-88a7a97e-49] |  | 5.88 µM |  |
| O=C(Oc1cncc(Cl)c1)c1cc2ccccc2[nH]1 [CHEMBL225515, O=C(c1cc(cccc2)c2[nH]1)Oc1cc(Cl)cnc1, reference compound] |  |  | IC50 ([2]; Origin ChEMBL, ref ChEMBL): 0.065 µM |

| Structure (SMILES) | IC50 ([1]; Origin ChEMBL, ref ChEMBL) | IC50 [2, 3] | other results |
| --- | --- | --- | --- |
| O=C(Nc1c[nH]c(=O)c2ccccc12)C1CCOc2ccc(Cl)cc21 (stereo not shown) [JOH-UNI-f51e3bbc-1] |  | 91.6 µM |  |
| N#Cc1cccc(NC(=O)Nc2cncc(N)c2)c1 [DAR-DIA-23aa0b97-8] |  | 54.3 µM |  |
| COC(=O)C1CC(NC(=O)C(c2cccnc2)N(C(=O)c2cocn2)c2ccc(C(C)(C)C)cc2)C1 (stereo not shown) [ALP-POS-88a7a97e-15] |  | 3.99 µM |  |
| CC(C)(C)c1ccc(N(C(=O)C2CCCO2)C(C(=O)NCCc2cccc(F)c2)c2cccnc2)cc1 (stereo not shown) [ALP-POS-02c6a514-17] |  | 5.56 µM |  |
| COC(=O)CNC(=O)C(c1cccnc1)N(C(=O)c1cocn1)c1ccc(C(C)(C)C)cc1 (stereo not shown) [ALP-POS-88a7a97e-33] |  | 10.8 µM |  |
| CC(C)(C)c1ccc(N(C(=O)c2cocn2)C(C(=O)NCCc2cccc(F)c2)c2ccnnc2)cc1 (stereo not shown) [ALP-POS-d0876c20-5] |  | 2.05 µM |  |
| O=C(NCCc1cccc(F)c1)C(c1cccnc1)N(C(=O)c1cocn1)c1cnc(C2CCC2)nc1 (stereo not shown) [ALP-POS-ced8ea4d-63] |  | 69.1 µM |  |
| Nc1ccc2cc3ccc(N)cc3nc2c1 [CHEMBL465704, CHEMBL55400] |  |  | IC50 ([2]; Origin ChEMBL, ref ChEMBL): 0.595 µM |
| Cc1ccncc1NC(=O)CC(C)C(C)C (stereo not shown) |  | 99 µM |  |
| Cc1cc(NC(=O)Cc2cncnc2)cc(OC2CC(=O)N2)c1 (stereo not shown) |  | 34.3 µM |  |
| Cn1cncc1NC(=O)Cc1cccc(Cl)c1 |  | 96.4 µM |  |
| O=C(Nc1cncc2ccccc12)C1CCN(Cc2ccccc2)c2ccc(Cl)cc21 (stereo not shown) [RAL-THA-8416115c-1] |  | 1.06 µM |  |
| C[C@H]1C[C@@H](C(=O)Nc2cncc3ccccc23)c2cc(Cl)ccc2O1 [EDJ-MED-e4b030d8-3] |  | 32.7 µM |  |
| O=C(Cc1cc(Cl)cc(OC2CCC(=O)N2)c1)Nc1cncc2ccccc12 (stereo not shown) [MAT-POS-9ff17035-1] |  | 85.9 µM |  |
| O=C(C[C@@]1(C(=O)Nc2cncc3ccccc23)CCOc2ccc(Cl)cc21)N1CCN(C2CCOC2)CC1 (stereo partly shown) [ALP-POS-2da19ca7-2] |  | 46.5 µM |  |
| O=C1CCCCN1c1ccc(N(Cc2ccccc2)C(=O)Cc2n[nH]c3ccccc23)cc1 [ALP-POS-a3de0cb1-16] |  | 39.4 µM |  |
| Cn1ncc(C(=O)N(c2ccc(C(C)(C)C)cc2)C(C(=O)NCCc2cccc(F)c2)c2cccnc2)n1 (stereo not shown) [ALP-POS-305f6ec3-46] |  | 17.6 µM |  |
| O=C(NCCc1cccc(F)c1)C(c1cccnc1)N(C(=O)c1c[nH]cn1)c1ccc(OC(F)F)cc1 (stereo not shown) [BRU-THA-92256091-16] |  | 22.1 µM |  |
| CC(C)(C)c1ccc(N(C(=O)c2cocn2)C(C(=O)NC2CCOC2)c2cccnc2)cc1 (stereo not shown) [ALP-POS-88a7a97e-30] |  | 2.77 µM |  |
| Cc1ccncc1NC(=O)Cc1cc(C#N)cc(OC2CC(=O)N2)c1 (stereo not shown) [TRY-UNI-2eddb1ff-6] |  | 10.1 µM |  |
